One data set relates to +SA mammary tumor. Description: +SA tumor implantation into mammary fat pads of syngeneic BALB/c mice. The format is in vivo. An excerpt:
The malignant +SA mammary epithelial cell line was derived from an adenocarcinoma that developed spontaneously in a female BALB/c mouse. These cells can be grown on plastic in culture and display the ability to grow in soft agarose. Re-implantation of +SA mammary tumor cells back into the mammary fat pad of syngeneic mice results in the rapid development and growth of metastatic tumors. Prior to experimentation, +SA cells were serially passaged at subconfluent cell density. For subculturing, cells are rinsed with calcium/magnesium-free phosphate buffered saline (PBS) and incubated in 0.05% trypsin containing 0.025% EDTA in PBS for 5 min at 37° C. […] Cell pellets are then resuspended in control culture media, counted by hemocytometer, and then plated at the desired density in culture plates. […] On the day of tumour implantation, +SA cells grown in culture are isolated with trypsin, washed, counted and diluted to the desired concentration in fresh culture medium. […] Tumor size and body weighs were recorded every other day. Average tumor diameter for each palpable tumor was determined using the mean of the 2 largest perpendicular diameters as measured with vernier calipers. Tumor volume was determined using the equation: Volume=Length (cm)×Width^2 (cm)/2 or V=L×W^2/2 […]

The test system of data set [1] is MDA-MB-231 human breast cancer cell line. Description: MTT assay of MDA-MB-231 cells. The format is cell-based. Particulars: media containing 5% fetal bovine serum. The procedure:
(§1) MDA-MB-231 and MCF7 cells were plated at a density of 8×10^3 cells/well and 10^4 cells/well in 96-well culture plates, respectively. The compounds were fed in serum free media containing 5% and 1% fetal bovine serum for MDA-MB-231 and MCF7 cells, respectively.
(Tetrazolium assays rely on reduction of a dye to a coloured formazan, in cell work by metabolically active cells.)

In data set [2] the test system is MCF7 human breast cancer cell line. As to the kind of experiment: MTT assay of MCF7 cells. Particulars: media containing 1% fetal bovine serum. Format: cell-based. As for the experimental part: as §1
The subject of data set [3] is MCF 10A non-tumorigenic mammary epithelial cells. Description: MTT assay of MCF10A cells. Format: cell-based, human. The procedure, abridged:
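MCF 10A non-tumorigenic human mammary epithelial cells were seeded at 10×10^4 cells/well and treated with compounds in serum-free medium, final DMSO below 0.1%. Viability was read by MTT, and IC50 came from non-linear regression. Selectivity index = MCF 10A IC50 ÷ +SA cell line IC50.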

These results are taken from patent publication US9115145B2, “Tocotrienol derivatives and associated methods” (FIRST TECH INTERNATIONAL LIMITED, priority 2011, dated 2015).

Each structure is given as a SMILES string. Read-outs that look alike come from different tables or passages of the source.

On to `COc1ccc(CCNCc2c(O)c(C)c(C)c3c2CC[C@@](C)(CC/C=C(\C)CC/C=C(\C)CCC=C(C)C)O3)cc1OC` [Compound 30, (R)-5-((3,4-dimethoxyphenethylamino)methyl)-2,7,8-trimethyl-2-((3E,7E)-4,8,12-trimethyltrideca-3,7,11-trienyl)chroman-6-ol], for which the body weights result in the data set on +SA mammary tumor (0.5 mg/day intravenous, 14-day treatment period) was “did not significantly differ”. In addition, in the data set with +SA mammary tumor (0.5 mg/day, tail vein injection, 14 day, vs vehicle-treated control), the “+SA mammary tumor growth” value is reported as “grew at a significantly slower rate”.

The IC50 is the concentration at which inhibition is half-maximal. Regarding `CC(C)=CCC/C(C)=C/CC/C(C)=C/CC[C@]1(C)CCc2cc(O)c(C)c(C)c2O1` [Compound 1, γ-tocotrienol, reference compound], the half-inhibitory concentration (IC50) in data set [1] is 9.4 µM; in data set [2], 7.1 µM; in data set [3] (MCF10A cells, Table II, non-linear regression, read-out: MCF10A (IC50)), 4.4 µM; in data set [3] (MCF 10A non-tumorigenic cells, Table I, read-out: IC50 MCF 10A) it was 4.4 µM.
